Measured values from ChEMBL document CHEMBL5352486, “Design, synthesis, in vitro - In vivo biological evaluation of novel thiazolopyrimidine compounds as antileishmanial agent with PTR1 inhibition” (Eur J Med Chem, 2023).
Converted amounts (≈) assume the structure as drawn. The source made the active and inactive calls. The rule behind the calls is not given here.

Legend:
Leishmania infantum [1] = assay: Antileishmanial activity against Leishmania infantum MHOM/TN/1980/IPT1 incubated for 48 hrs by Neubauer hemocytometer analysis; type: functional, organism-based; settings: MHOM/TN/1980/IPT1, 48 h
Leishmania tropica [2] = assay: Antileishmanial activity against Leishmania tropica MHOM/A7/1974/SAF-K27 incubated for 48 hrs by XTT method; type: functional, organism-based; settings: MHOM/A7/1974/SAF-K27, 48 h
Leishmania infantum [3] = assay: Antileishmanial activity against Leishmania infantum MHOM/TN/1980/IPT1 incubated for 48 hrs by XTT method; type: functional, organism-based; settings: MHOM/TN/1980/IPT1, 48 h
Leishmania tropica [4] = assay: Potency index, ratio of glucantime IC50 to test compound IC50 for antileishmanial activity against Leishmania tropica MHOM/A7/1974/SAF-K27; type: functional
Pteridine reductase 1 = molecular target: T1, Pteridine reductase 1 (Leishmania major, UniProt Q01782); assay: Inhibition of recombinant Leishmania major PTR1 expressed in Escherichia coli BL21 using folic acid as substrate in presence of NADPH
T1 sequence (Q01782 whole entry): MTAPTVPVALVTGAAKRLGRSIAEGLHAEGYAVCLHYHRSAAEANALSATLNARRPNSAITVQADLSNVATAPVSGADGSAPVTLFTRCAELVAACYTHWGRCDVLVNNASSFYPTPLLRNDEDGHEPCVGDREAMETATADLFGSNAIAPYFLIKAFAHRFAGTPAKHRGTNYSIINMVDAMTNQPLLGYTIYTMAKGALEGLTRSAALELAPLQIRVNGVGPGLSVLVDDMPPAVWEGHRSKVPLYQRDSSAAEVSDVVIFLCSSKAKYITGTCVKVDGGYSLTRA

[5] = system: DHFR (human) versus PTR1 (Leishmania major); assay: Selectivity index, ratio of IC50 for human DHFR to IC50 for Leishmania major PTR1; type: toxicity; settings: human DHFR enzyme and Leishmania major PTR1 enzyme, read-out: Ratio IC50
Leishmania infantum [6] = assay: Antileishmanial activity against Leishmania infantum infected in BALB/c mouse model of cutaneous leishmaniasis assessed as footpad lesion development at 50 mg/kg/day, ID administered for 21 days and measured after 8 weeks by Giemsa staining based analysis (reference value: 3.13 +/- 0.03); type: functional; settings: time 21 day
Leishmania infantum [7] = assay: Antileishmanial activity against Leishmania infantum infected in BALB/c mouse model of cutaneous leishmaniasis assessed as footpad lesion development at 50 mg/kg/day, ID administered for 21 days and measured after 12 weeks by Giemsa staining based analysis (reference value: 3.61 +/- 0.03); type: functional; settings: time 21 day
Leishmania infantum [8] = assay: Antileishmanial activity against Leishmania infantum infected in BALB/c mouse model of cutaneous leishmaniasis assessed as footpad lesion development at 50 mg/kg/day, ID administered for 21 days and measured after 20 weeks by Giemsa staining based analysis (reference value: 4.54 +/- 0.04); type: functional; settings: time 21 day
Leishmania infantum [9] = assay: Antileishmanial activity against Leishmania infantum infected in BALB/c mouse model of visceral leishmaniasis assessed as footpad lesion development at 50 mg/kg/day, IM administered for 21 days and measured after 3 weeks by Giemsa staining based analysis (reference value: 28.94 +/- 0.59); type: functional; settings: time 21 day
Leishmania infantum [10] = assay: Antileishmanial activity against Leishmania infantum infected in BALB/c mouse model of visceral leishmaniasis assessed as footpad lesion development at 50 mg/kg/day, IM administered for 21 days and measured after 5 weeks by Giemsa staining based analysis (reference value: 27.04 +/- 0.65); type: functional; settings: time 21 day
Leishmania infantum [11] = assay: Antileishmanial activity against Leishmania infantum infected in BALB/c mouse model of visceral leishmaniasis assessed as footpad lesion development at 50 mg/kg/day, IM administered for 21 days and measured after 8 weeks by Giemsa staining based analysis (reference value: 23.84 +/- 0.93); type: functional; settings: time 21 day
Leishmania infantum [12] = assay: Antileishmanial activity against Leishmania infantum infected in BALB/c mouse model of visceral leishmaniasis assessed as footpad lesion development at 50 mg/kg/day, IM administered for 21 days and measured after 9 weeks by Giemsa staining based analysis (reference value: 22.75 +/- 0.71); type: functional; settings: time 21 day
Leishmania infantum [13] = assay: Antileishmanial activity against Leishmania infantum infected in BALB/c mouse model of visceral leishmaniasis assessed as parasite growth in spleen at 50 mg/kg/day, IM administered for 21 days; type: functional, organism-based; settings: time 21.0 day

## CCOC(=O)N1CCN(c2ncc3nc(NC(=O)c4ccc(Cl)c(Cl)c4)sc3n2)CC1
Leishmania infantum [1]
  IC50: 0.041 µg/mL (≈ 0.0852 µM)
Leishmania tropica [2]
  IC50: 0.04 µg/mL (≈ 0.0831 µM)
Leishmania infantum [3]
  IC50: 0.042 µg/mL (≈ 0.0873 µM)
Leishmania tropica [4]
  Ratio IC50: 200
Pteridine reductase 1
  IC50: 123 µM
[5]
  selectivity ratio: 42.6
Leishmania infantum [6]
  Activity: 3.1
Leishmania infantum [7]
  Activity: 3.61
Leishmania infantum [8]
  Activity: 4.52
Leishmania infantum [9]
  Activity: 28.71
Leishmania infantum [10]
  Activity: 26.78
Leishmania infantum [11]
  Activity: 26.84
Leishmania infantum [12]
  Activity: 27.35
Leishmania infantum [13]
  Activity: inactive

## CN1CCN(c2ncc3nc(NC(=O)c4ccc(Cl)c(Cl)c4)sc3n2)CC1
Leishmania infantum [1]
  IC50: 8.16 µg/mL (≈ 19.3 µM)
Leishmania tropica [2]
  IC50: 7.81 µg/mL (≈ 18.4 µM)
Leishmania infantum [3]
  IC50: 8.28 µg/mL (≈ 19.6 µM)
Pteridine reductase 1
  IC50: 21.3 µM
[5]
  selectivity ratio: 312
Leishmania infantum [6]
  Activity: 3.1
Leishmania infantum [7]
  Activity: 3.61
Leishmania infantum [8]
  Activity: 4.53
Leishmania infantum [9]
  Activity: 28.73
Leishmania infantum [10]
  Activity: 26.63
Leishmania infantum [11]
  Activity: 23.36
Leishmania infantum [12]
  Activity: 22.18
Leishmania infantum [13]
  Activity: Active

## CN(C)c1ncc2nc(NC(=O)c3ccc(Cl)c([N+](=O)[O-])c3)sc2n1
Leishmania infantum [1]
  IC50: 7.06 µg/mL (≈ 18.6 µM)
Leishmania tropica [2]
  IC50: 6.68 µg/mL (≈ 17.6 µM)
Leishmania infantum [3]
  IC50: 6.77 µg/mL (≈ 17.9 µM)
Pteridine reductase 1
  IC50: 680 µM
[5]
  selectivity ratio: 7.02
Leishmania infantum [6]
  Activity: 3.09
Leishmania infantum [7]
  Activity: 3.61
Leishmania infantum [8]
  Activity: 4.53
Leishmania infantum [9]
  Activity: 28.71
Leishmania infantum [10]
  Activity: 26.95
Leishmania infantum [11]
  Activity: 27.42
Leishmania infantum [12]
  Activity: 28.13
Leishmania infantum [13]
  Activity: Active
